This note sets out measurements from patent publication US20170355959A1, “METHODS FOR MOBILISING POPULATIONS OF STEM CELLS” (Imperial Innovations Limited, priority 2014, published 2017).

Holding throughout (format): in vivo, mice
In one test the test system is HSPCs. The experiment in a line: Mobilization of HSPCs into peripheral blood (CFU-HPC assay). Here is the method:
Mice were administered the β-adrenergic agonists isoproterenol (10 mg/kg i.p.), clenbuterol (5 mg/kg i.p.) and BRL 37344 (10 mg/kg i.p.), the cannabinoid receptor agonists ACEA (10 mg/kg i.p.) and GP1a (5 mg/kg i.p.), or vehicle either on 4 consecutive days or 2 hours prior to the cull. 1 hour after the last injection, mice were administered the CXCR4 antagonist AMD3100 (5 mg/kg i.p.) or vehicle. 1 hour later their blood was collected via cardiac puncture for enumeration of circulating CFU-HPCs and CFU-Fs. Mice were administered murine G-CSF (100 μg/kg i.p.) or vehicle on 4 consecutive days. On day 5, blood was collected via cardiac puncture for enumeration of circulating HSPCs.
Harvested peripheral blood or perfusate was red blood cell-lysed and 1×10^5 cells were added to tissue culture-treated petri dishes containing 1 ml of Methocult™ (M3434; StemCell Technologies) to select for CFU-HPCs. Cultures were incubated at 37° C. and quantified on day 12. Similarly, 1×10^6 bone marrow cells harvested by bone marrow flush of the hind limb femur were plated for CFU-HPCs.

The test system of a further test is CFU-Fs (MSCs). The experiment in a line: In situ perfusion of mouse hind limb, CFU-Fs in perfusate. The conditions noted are these: four day pretreatment, b3 adrenergic agonist in combination with FAAH inhibitor. Here is the method:
Mice were administered BRL 37344 (10 mg/kg i.p.) or vehicle on 4 consecutive days. 1 hour after the last injection, the mice were anaesthetized. The femoral vein and artery were exposed and cannulated in situ immediately after the hind limb was isolated by occlusion of the surrounding arteries as previously described (Pitchford et al, 2009; Pitchford et al, 2010). Perfusion buffer was infused via the arterial cannula and removed from the venous cannula using a Minipuls Peristaltic Pump (Anachem). The hind limb was initially infused with AMD3100 (0.1 mM) or vehicle for 10 minutes using an infusion/withdrawal pump (Harvard Instruments) and was further perfused for 50 minutes with perfusion buffer (Pitchford et al, 2010). The perfusate was collected over 60 minutes and then centrifuged and resuspended in DMEM (Gibco) +20% fetal bovine serum for enumeration of CFU-HPCs and CFU-Fs.
Harvested peripheral blood or perfusate was red blood cell-lysed and 1×10^6 cells were added to tissue culture-treated 6-well plates containing 3 ml of Mesencult™ (05502; StemCell Technologies) to select for CFU-Fs. Similarly, 1×10^6 bone marrow cells harvested by bone marrow flush of the hind limb femur were plated for CFU-Fs. Cultures were incubated at 37° C. and media was changed on day 7. Bone marrow-derived CFU-Fs were enumerated on day 13 and blood- and perfusate-derived CFU-Fs were enumerated on day 21. Blood derived-CFU-Fs were further expanded and assessed for mesenchymal lineage markers by flow cytometry and following CD45 depletion (flow cytometry sorting of CD45 negative for mesenchymal trilineage differentiation (Supplemental Experimental Procedures).

Another test relates to CXCL12. The experiment in a line: CXCL12 ELISA of bone marrow supernatant. As to conditions: 4 days of treatment, bone marrow 2 hours after final injection. Here is the method: (A) Mice were pretreated with BRL 37344 (β3), G-CSF or vehicle (VEH) once daily on 4 consecutive days. 2 hours after the final BRL 37344 injection or 24 hours after the final G-CSF injection, bone marrow was collected for quantification of CXCL12 levels (n=16 and n=6-8, respectively). (B) Bone marrow cells were collected from naïve mice and were treated in vitro with clenbuterol (β2), BRL 37344 (β3) or vehicle (VEH). CFU-Fs per 10^6 cells are shown (n=6 mice per group). (C) Mice were pre-treated with AM 251, AM 630, BRL 37344 (β3) or vehicle (VEH) once daily on 4 consecutive days. 2 hours after the last injection, bone marrow cells were collected for enumeration of CFU-Fs. CFU-Fs per 10^6 cells are shown (n=6-8 mice per group). (D) CB1 receptor antagonist AM 251 (CB1l, CB2 receptor antagonist AM 630 (CB2l, BRL 37344 (β3) or vehicle. Data represented as mean±SEM. (A) **p<0.01 (unpaired student t-test) and (B-D) *p<0.05, **p<0.01, ***p<0.001 (one-way ANOVA).
CXCL12 content in blood plasma and bone marrow supernatant was quantified using CXCL12 capture (MAB350) and detection (BAF351) antibodies (RnD systems), and the assay was performed according to the manufacturers' instructions. Recombinant mouse CXCL12 (RnD systems) was used to generate a standard curve.

With `C[C@H](Cc1ccc(OCC(=O)O)cc1)NC[C@H](O)c1cccc(Cl)c1` [BRL37344], the “pre-treatment time needed for HSPC mobilization” value with HSPCs (2 h versus 4 d pre-treatment, then AMD3100) is “required the pre-treatment of mice over 4 days to see this effect”. Moreover, in the test with HSPCs (pre-treated once daily for 4 days, then AMD3100, blood 1 hour later), the “circulating HSPC numbers” value is “significantly boosted circulating numbers of HSPCs and CFU-Fs as compared to that observed with isoproterenol and AMD3100 in combination”. Also, the “MSC egress from the bone marrow in response to infusion of the CXCR4 antagonist” value in the test on CFU-Fs (MSCs) is “significantly enhanced both HPC and MSC egress from the bone marrow”. In addition, the “levels of CXCL12 in the bone marrow” value with CXCL12 is “had no effect on levels of CXCL12 in the bone marrow”.
